Publication PMC12396240 (Drug Design, Development and Therapy, 2025)
“Also recorded” adds a separate entry of the source. Blank lines part the entries; values can stand above or below the molecule they belong to.

Experiments:
[1] = Pharmacokinetics of apixaban in rats, alone and with palbociclib; type: in vivo, Sprague-Dawley rats
[2] = Pharmacokinetics of rivaroxaban in rats, alone and with palbociclib; type: in vivo, Sprague-Dawley rats
[3] = Pharmacokinetics of palbociclib in rats, alone and with apixaban or rivaroxaban; type: in vivo, Sprague-Dawley rats
[4] = test system: P-gp (Abcb1a); experiment: qRT-PCR mRNA expression in rat liver and intestine after palbociclib for 8 days; type: in vivo; settings: palbociclib for eight consecutive days vs blank control
[5] = test system: BCRP (Abcg2); experiment: as above; type: in vivo; settings: palbociclib for eight consecutive days vs blank control
[6] = apixaban 0.25 mg/kg alongside palbociclib, rats, no statistical significance
[7] = apixaban 0.5 mg/kg with simultaneous palbociclib vs apixaban-only group, rats
[8] = apixaban 0.5 mg/kg with simultaneous palbociclib vs control group, rats
[9] = SD rats, oral, rivaroxaban 2 mg/kg alone, geometric mean (GSD) (geometric CV%)
[10] = male, Sprague-Dawley, rat, plasma, po, 2 mg/kg
[11] = rivaroxaban 1 mg/kg + multiple doses of palbociclib compared with rivaroxaban 2 mg/kg, rats
[12] = palbociclib co-administered with apixaban vs palbociclib alone, rats
[13] = palbociclib co-administered with rivaroxaban vs palbociclib alone, rats

CLz ([1]; SD rats, oral, apixaban 0.5 mg/kg alone, geometric mean (GSD) (geometric CV%)): 0.86(GSD 1.49) (110.3%) L/h/kg
differences for CLz/F, Tmax, t1/2, Vz/F, MRT0-t and MRT0-∞ of apixaban ([1]; apixaban 0.25 mg/kg alongside palbociclib, rats): no significant differences
increase in AUC0-t of apixaban [1, 6]: 43.35%
increase in AUC0-∞ of apixaban [1, 6]: 43.49%
increase in Cmax of apixaban [1, 6]: 45.03%
increase in AUC0-t of apixaban [1, 7]: 258.36%
increase in AUC0-∞ of apixaban [1, 7]: 256.64%
increase in Cmax of apixaban [1, 7]: 243.61%
decrease in apparent volume of distribution Vz/F of apixaban [1, 8]: 73.73%
decrease in clearance CLz/F of apixaban [1, 8]: 72.53%
AUC(0-t) ([1]; male, Sprague-Dawley, rat, plasma, po, 0.5 mg/kg, AUC0-t, SD rats, apixaban 0.5 mg/kg alone, geometric mean (GSD) (geometric CV%)): 579 ng·h/mL
AUC(0-inf) ([1]; male, Sprague-Dawley, rat, plasma, po, 0.5 mg/kg, AUC0-∞, SD rats, apixaban 0.5 mg/kg alone, geometric mean (GSD) (geometric CV%)): 583 ng·h/mL
Cmax ([1]; male, Sprague-Dawley, rat, plasma, po, 0.5 mg/kg, Cmax, SD rats, apixaban 0.5 mg/kg alone, geometric mean (GSD) (geometric CV%)): 243 ng/mL
MRT last ([1]; male, Sprague-Dawley, rat, plasma, po, 0.5 mg/kg, MRT0-t, SD rats, apixaban 0.5 mg/kg alone, geometric mean (GSD) (geometric CV%)): 1.83 h
MRT inf ([1]; male, Sprague-Dawley, rat, plasma, po, 0.5 mg/kg, MRT0-∞, SD rats, apixaban 0.5 mg/kg alone, geometric mean (GSD) (geometric CV%)): 1.92 h
Tmax ([1]; male, Sprague-Dawley, rat, plasma, po, 0.5 mg/kg, Tmax, SD rats, apixaban 0.5 mg/kg alone, geometric mean (GSD) (geometric CV%)): 0.53 h
SMILES: COc1ccc(-n2nc(C(N)=O)c3c2C(=O)N(c2ccc(N4CCCCC4=O)cc2)CC3)cc1 [Apixaban, apixaban]
effect on pharmacokinetic parameters of apixaban ([1]; apixaban and palbociclib given 12 hours apart, rats): no significant pharmacokinetic changes; also recorded: not affected

CLz [2, 9]: 0.69(GSD 1.20) (65.6%) L/h/kg
Vz [2, 9]: 2.13(GSD 1.55) (118.4%) L/kg
MRT inf [2, 10]: 3.67 h
MRT last [2, 10]: 3.32 h
AUC(0-t) ([2]; male, Sprague-Dawley, rat, plasma, po, 2 mg/kg, AUC0-t, SD rats, rivaroxaban 2 mg/kg alone, geometric mean (GSD) (geometric CV%)): 691 ng·h/mL
AUC(0-inf) ([2]; male, Sprague-Dawley, rat, plasma, po, 2 mg/kg, AUC0-∞, SD rats, rivaroxaban 2 mg/kg alone, geometric mean (GSD) (geometric CV%)): 722 ng·h/mL
Tmax ([2]; male, Sprague-Dawley, rat, plasma, po, 2 mg/kg, Tmax, SD rats, rivaroxaban 2 mg/kg alone, geometric mean (GSD) (geometric CV%)): 1.02 h
decrease in MRT0-t of rivaroxaban [2, 11]: 27.82%
decrease in MRT0-∞ of rivaroxaban [2, 11]: 35.43%
decrease in apparent volume of distribution Vz/F of rivaroxaban [2, 11]: 77.46%
decrease in clearance CLz/F of rivaroxaban [2, 11]: 60.87%
differences for Tmax and t1/2 of rivaroxaban [2, 11]: no significant differences
increase in AUC0-t of rivaroxaban [2, 11]: 161.86%
increase in AUC0-∞ of rivaroxaban [2, 11]: 150.93%
increase in Cmax of rivaroxaban [2, 11]: 243.63%
SMILES: O=C(NC[C@H]1CN(c2ccc(N3CCOCC3=O)cc2)C(=O)O1)c1ccc(Cl)s1 [Rivaroxaban, rivaroxaban]
effect on pharmacokinetic parameters of rivaroxaban ([2]; rivaroxaban and palbociclib given 12 hours apart, rats): no significant pharmacokinetic changes; also recorded: not affected

AUC(0-t) ([3]; male, Sprague-Dawley, rat, plasma, po, 11 mg/kg, AUC0-t, SD rats, palbociclib 11 mg/kg alone, geometric mean (GSD) (geometric CV%)): 4340 ng·h/mL
AUC(0-inf) ([3]; male, Sprague-Dawley, rat, plasma, po, 11 mg/kg, AUC0-∞, SD rats, palbociclib 11 mg/kg alone, geometric mean (GSD) (geometric CV%)): 4350 ng·h/mL
Cmax ([3]; male, Sprague-Dawley, rat, plasma, po, 11 mg/kg, Cmax, SD rats, palbociclib 11 mg/kg alone, geometric mean (GSD) (geometric CV%)): 469 ng/mL
MRT last ([3]; male, Sprague-Dawley, rat, plasma, po, 11 mg/kg, MRT0-t, SD rats, palbociclib 11 mg/kg alone, geometric mean (GSD) (geometric CV%)): 7.33 h
MRT inf ([3]; male, Sprague-Dawley, rat, plasma, po, 11 mg/kg, MRT0-∞, SD rats, palbociclib 11 mg/kg alone, geometric mean (GSD) (geometric CV%)): 7.39 h
Tmax ([3]; male, Sprague-Dawley, rat, plasma, po, 11 mg/kg, Tmax, SD rats, palbociclib 11 mg/kg alone, geometric mean (GSD) (geometric CV%)): 2.83 h
half-life ([3]; male, Sprague-Dawley, rat, plasma, po, 11 mg/kg, t1/2, SD rats, palbociclib 11 mg/kg alone, geometric mean (GSD) (geometric CV%)): 3.99 h
increase in AUC0-t of palbociclib [3, 12]: 24.75%
increase in AUC0-∞ of palbociclib [3, 12]: 24.83%
increase in Cmax of palbociclib [3, 12]: 49.30%
increase in AUC0-t of palbociclib [3, 13]: 32.94%
increase in AUC0-∞ of palbociclib [3, 13]: 33.13%
SMILES: CC(=O)c1c(C)c2cnc(Nc3ccc(N4CCNCC4)cn3)nc2n(C2CCCC2)c1=O [Palbociclib, palbociclib]
downregulation of P-gp mRNA expression ([4]; intestine): 20.17%
effect on P-gp mRNA expression ([4]; liver): no significant effect
effect on BCRP mRNA expression ([5]; intestine): no significant inhibition
decrease of BCRP mRNA expression ([5]; liver): 31.66%
